The source of these data is patent publication EP0179667B1, “N6-substituted adenosines” (priority 1984, dated 1986).

For data set [1], the target named is T1, adenosine A1 receptor (Rattus norvegicus, UniProt P25099).
T1 construct: Whole brain minus cerebellum and brainstem from male Long Evans rats (150-200 g) was homogenized; from tissue; host or cells: rat whole brain minus cerebellum and brainstem, membrane homogenate
T1 sequence (P25099 1-326): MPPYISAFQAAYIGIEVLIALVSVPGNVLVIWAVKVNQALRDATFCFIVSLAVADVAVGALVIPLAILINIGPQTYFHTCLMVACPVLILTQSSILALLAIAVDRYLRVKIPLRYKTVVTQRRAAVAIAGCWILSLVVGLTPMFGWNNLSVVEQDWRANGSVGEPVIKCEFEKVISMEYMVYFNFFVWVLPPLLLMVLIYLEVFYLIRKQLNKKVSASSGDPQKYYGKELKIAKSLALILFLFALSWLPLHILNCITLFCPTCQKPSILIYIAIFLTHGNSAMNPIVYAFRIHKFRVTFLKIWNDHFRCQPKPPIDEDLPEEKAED
The data set can be described thus: Adenosine Receptor Binding - A1 Receptor Affinity (RBA1). As to conditions: [3H]-CHA, rat whole brain membranes; read-out: RBA-1. Here is the method:
Adenosine Receptor Binding - A1 Receptor Affinity (RBA1)
Whole brain minus cerebellum and brainstem from male Long Evans rats (150-200 g) was homogenized in 30 volumes of ice-cold 0.05 M Tris-HCI buffer pH 7.7 using a Brinkman Polytron PT-10 (setting number 6 for 20 seconds) and centrifuged for ten minutes at 20,000 x g (Sorvall RC-2), 4°C. The supernatant was discarded, and the pellet was resuspended and centrifuged as before. The pellet was resuspended in 20 ml Tris-HCI buffer containing two International Units/ml of adenosine deaminase (Sigma type III from calf intestinal mucosa), incubated at 37°C for 30 minutes, then subsequently at 0°C for ten minutes. The homogenate was again centrifuged, and the final pellet was resuspended in ice-cold 0.05 M Tris-HCI buffer pH 7.7 to a concentration of 20 mg/ml original wet tissue weight and used immediately.
Tissue homogenate (10 mg/ml) was incubated in 0.05 M Tris-HCI buffer pH 7.7 containing 1.0 nM [^3H]-N^6-cyclohexyladenosine (^3H]-CHA) with or without test agents in triplicate for one hour at 25°C. Incubation volume was 2 ml. Unbound [^3H]-CHA was separated by rapid filtration under reduced pressure through Whatman glass fiber (GF/B) filters. The filters were rinsed three times with 5 ml of ice cold 0.05 M Tris-HCI buffer pH 7.7. The radio-labeled ligand retained on the filter was measured by liquid scintillation spectrophotometry after shaking the filters for one hour or longer on a mechanical shaker in 10 ml of Beckman Ready Solv HP scintillation cocktail.
Nonspecific binding was defined as the binding which occurred in the presence of 1 mM thophylline. […] The Scatchard plot was calculated by linear regression of the line obtained by plotting the amount of radioligand bound (pmoles/gram of tissue) versus [formula] Since the amount of radioligand bound was a small fraction of the total amount added, free radioligand was defined as the concentration (nM) of radioligand added to the incubation mixture. The Hill coefficient was calculated by linear regression of the line obtained by plotting the log of the bound radioligand vs the log of the [formula] The maximal number of binding sites (Bmax) was calculated from the Scatchard plot.

In data set [2] the target is T2, adenosine A2 receptor (Rattus norvegicus, UniProt P30543).
T2 construct: 5 mg original tissue weight of rat weight of rat striatal membranes; tissue Pel-Freez (Rogers, Arkansas); host or cells: rat striatum, membrane preparation
T2 sequence (P30543 whole entry): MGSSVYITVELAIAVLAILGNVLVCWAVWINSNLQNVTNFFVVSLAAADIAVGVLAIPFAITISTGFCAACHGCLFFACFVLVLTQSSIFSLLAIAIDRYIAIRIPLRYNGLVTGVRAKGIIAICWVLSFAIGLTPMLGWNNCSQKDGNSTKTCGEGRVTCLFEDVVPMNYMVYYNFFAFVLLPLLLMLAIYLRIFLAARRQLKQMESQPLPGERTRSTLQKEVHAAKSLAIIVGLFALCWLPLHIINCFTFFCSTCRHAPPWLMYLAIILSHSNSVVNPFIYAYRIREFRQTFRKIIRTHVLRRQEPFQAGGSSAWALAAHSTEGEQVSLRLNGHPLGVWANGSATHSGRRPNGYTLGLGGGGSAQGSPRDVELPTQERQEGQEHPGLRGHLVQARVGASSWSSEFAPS
Nature of the data set: Adenosine Receptor Binding - A2 Receptor Affinity (RBA2). As to conditions: [3H]NECA, rat striatal membranes; read-out: RBA-2. On the procedure: Adenosine Receptor Binding - A2 Receptor Affinity (RBA2)
Brains from 200-500 g mixed sex Sprague-Dawley rats were purchased from Pel-Freez (Rogers, Arkansas). […] Brains were thawed and then kept on ice while the striata were dissected out. […] When needed, tissue was thawed at room temperature, disrupted in a Polytron, and kept on ice until used.
All incubations were for 60 minutes at 25°C in 12x75 mm glass tubes containing 1 ml Tris with 5 mg original tissue weight of rat weight of rat striatal membranes, 4 nM [^3H]-N-ethyl adenosine-5'-carboxamide ([^3H]NECA), 50 nM N^6-cyclopentyladenosine (to eliminate A1 receptor binding), 10 mM MgCl2, 0.1 units/ml of adenosine deaminase and 1% dimethylsulfoxide. N^6-Cyclopentyladenosine was dissolved at 10 mM in 0.02 N HCI and diluted in Tris. […] Test compounds were dissolved at 10 mM in dimethylsulfoxide on the same day as the experiment, and diluted in dimethylsulfoxide to 100x the final incubation concentration. […] [^3H]NECA was diluted to 40 nM in Tris. The membrane suspension (5 mg/0.79 ml) contained sufficient MgC12 and adenosine deaminase to give 10 mM and 0.1 units/ml, respectively, final concentration in the incubation. For test compounds with lC50 values less than 1 µM, the order of additions was test compound (10 µl), N^6-cyclopentyladenosine (100 µl), [^3H]NECA (100 µl), and membranes (0.79 ml). […] After all additions, the rack of tubes was vortexed, and the tubes were then incubated for 60 min at 25°C in a shaking water bath. The rack of tubes was vortexed an additional time halfway through the incubation.
incubations were terminated by filtration through 2.4 cm GF/B filters under reduced pressure. Each tube was filtered as follows: the contents of the tube were poured onto the filter, 4 ml of ice-cold Tris were added to the tube and the contents poured onto the filter, and the filter was washed twice with 4 ml of ice-cold Tris. The filtration was complete in about twelve seconds.
Nonspecific binding was defined as binding in the presence of 100 µM N^6-cyclopentyladenosine, and specific binding was defined as total binding minus nonspecific binding. The IC50 was calculated by weighed nonlinear least squares curve-fitting to the mass-action equation. [formula] • where Y is cpm bound • T is cpm total binding without drug • S is cpm specific binding without drug • D is the concentration of drug • and K is the IC50 of the drug Weighting factors were calculated under the assumption that the standard deviation was proportional to the predicted value of Y. Nonspecific binding was treated as a very large (infinite) concentration of drug in the computer analysis.

The test system of data set [3] is Swiss-Webster male mice. Nature of the data set: Mouse Activity and Screen Test Procedure (MAST): locomotor activity in actophotometer. As to conditions: one hour prior to testing. In kind it is in vivo. On the procedure: Nine unfasted Swiss-Webster male mice weighing 20-30 g equally divided into three groups for each drug dose to be tested. That is, data for each dose level was generated by three separated groups of three mice each. A minimum of three dose levels (10, 30, and 100 mg/kg) are tested for each drug. Treatments are administered intraperitoneally one hour prior to testing. All dosages are calculated as parent compound and given in volumes of 10 ml/kg. […] Control animals are injected with Methocel. […] The actophotometer consists of a cylindrical chamber whose center is occupied by another cylinder which contains the illumination for six photocells located on the perimeter of the chamber. Six light-beam interruptions equal one count. […] Data: The data obtained from the screen test are expressed as percent of mice falling off the screen. Data derived from locomotor activity of drug treated mice are compared to the activity of vehicle treated animals and are expressed as percent inhibition of spontaneous locomotion. All percentages reported for inhibition of locomotion (LI) are based upon data accumulated for one hour. […] An overall dose rating is obtained by the following criteria: LAD refers to the lowest dose at which an A rating is achieved. […] The compounds are identified in the Examples.

Data set [4] concerns Swiss-Webster male mice. Nature of the data set: Mouse Activity and Screen Test Procedure (MAST): screen test (ST). The format is in vivo. As to conditions: one hour postinjection. The text has this: The compounds of the invention are new chemical substances which are useful as pharmaceutical agents for the treatment of psychoses. The antipsychotic activity of representative compounds of the invention was established by the Mouse Activity and Screen Test Procedrue (MAST) described below.
Nine unfasted Swiss-Webster male mice weighing 20-30 g equally divided into three groups for each drug dose to be tested. That is, data for each dose level was generated by three separated groups of three mice each.
A minimum of three dose levels (10, 30, and 100 mg/kg) are tested for each drug. Treatments are administered intraperitoneally one hour prior to testing. All dosages are calculated as parent compound and given in volumes of 10 ml/kg. Compounds are dissolved or suspended in 0.2% Methocel. Control animals are injected with Methocel.
Testing: A two part testing procedure is started one hour postinjection. First, the screen test (ST) is performed (see Pharmac. Biochem. Behav. 6, 351-353, 1977). Briefly this test consists of placing mice on individual wire screens which are then rotated 180 degrees at the start of a 60 second observation period. The number of mice falling off the inverted screen is recorded.
Data: The data obtained from the screen test are expressed as percent of mice falling off the screen. Data derived from locomotor activity of drug treated mice are compared to the activity of vehicle treated animals and are expressed as percent inhibition of spontaneous locomotion. All percentages reported for inhibition of locomotion (LI) are based upon data accumulated for one hour. Both phases of testing are graded: A=60-100%; G=31-59%; and N=0-30%. An overall dose rating is obtained by the following criteria:
LAD refers to the lowest dose at which an A rating is achieved. […] Utilizing this procedure, an overall dose rating of A was obtained for the noted compound at the indicated dose. The compounds are identified in the Examples.

Regarding `COc1cccc2c1CCC[C@H]2Nc1ncnc2c1ncn2[C@@H]1O[C@H](CO)[C@@H](O)[C@H]1O` [Example 11, (R)-N^6-[5-methoxy-1-aminotetralin]-adenosine], the IC50 turned out to be 0.444 µM in data set [1] and 2.61 µM in data set [2].
On to `CC1(C)O[C@@H]2[C@H](O1)[C@@H](CO)O[C@H]2n1cnc2c(NC3CCCc4ccccc43)ncnc21` (stereo partly drawn) [Example 12, N^6-(1-tetralinyl)-2',3'-O-isopropylidene-adenosine], for which the IC50 in data set [1] is 22.4 µM. The “Inhibition of mouse locomotor activity” value in data set [3] (3 mg/kg intraperitoneally) is reported as 3%; in data set [3] (10 mg/kg intraperitoneally) it was −1%; in data set [3] (30 mg/kg intraperitoneally), −16%. Moreover, the Screen test failure in data set [4] (3 mg/kg intraperitoneally), in data set [4] (10 mg/kg intraperitoneally) and in data set [4] (30 mg/kg intraperitoneally) was 0% in each case.
`O=C(OC[C@H]1O[C@@H](n2cnc3c(NC4CCCc5ccccc54)ncnc32)[C@H](O)[C@@H]1O)c1ccccc1` (stereo partly drawn) [Example 13, N^6-(1-tetralinyl)-5'-benzoyladenosine]: the IC50 in data set [1] amounted to 1.06 µM; in data set [2], 7.92 µM.
With `CCOC(=O)OC[C@H]1O[C@@H](n2cnc3c(NC4CCCc5ccccc54)ncnc32)[C@H](OC(=O)OCC)[C@@H]1OC(=O)OCC` (stereo partly drawn) [Example 19, N^6-1-tetralinyl-2',3',5'-triethylcarbonate-adenosine], the “Inhibition of mouse locomotor activity” value in data set [3] (1 mg/kg intraperitoneally) amounted to 42%; in data set [3] (3 mg/kg intraperitoneally), 57%; in data set [3] (10 mg/kg intraperitoneally), 91%; in data set [3] (30 mg/kg intraperitoneally), 95%. For the same compound, the Screen test failure in data set [4] (1 mg/kg intraperitoneally) was 11%; in data set [4] (3 mg/kg intraperitoneally), 0%; in data set [4] (10 mg/kg intraperitoneally), 0%; in data set [4] (30 mg/kg intraperitoneally), 11%.
For `O[C@@H]1[C@H](O)[C@@H](COCc2ccccc2)O[C@H]1n1cnc2c(NC3CCCc4ccccc43)ncnc21` (stereo partly drawn) [Example 20, N^6-tetralinyl-5'-benzylether-adenosine], the results for the IC50 in data set [1] and in data set [2] were 5.84 µM and 46.7 µM, respectively.
